Source: patent US4895869A, “Phenylene, furyl, and thienyl leukotriene B4 analogues” (C. D. Searle & Co., priority 1988, dated 1990)

Tests used:
LTB4 receptor = molecular target: T1, LTB4 receptor (Homo sapiens, UniProt Q15722); assay: LTB4 Receptor Binding Assay (inhibition of specific binding of (3H) LTB4 to human neutrophils); settings: 0.6 nM (3H) LTB4, 0° C., 45 minutes; for IC50: pH 7.4
T1 construct: neutrophils were purified from venous blood of normal human donors; endogenous in cells; host or cells: neutrophils purified from venous blood of normal human donors (purity at least 95%)
T1 sequence (Q15722 whole entry): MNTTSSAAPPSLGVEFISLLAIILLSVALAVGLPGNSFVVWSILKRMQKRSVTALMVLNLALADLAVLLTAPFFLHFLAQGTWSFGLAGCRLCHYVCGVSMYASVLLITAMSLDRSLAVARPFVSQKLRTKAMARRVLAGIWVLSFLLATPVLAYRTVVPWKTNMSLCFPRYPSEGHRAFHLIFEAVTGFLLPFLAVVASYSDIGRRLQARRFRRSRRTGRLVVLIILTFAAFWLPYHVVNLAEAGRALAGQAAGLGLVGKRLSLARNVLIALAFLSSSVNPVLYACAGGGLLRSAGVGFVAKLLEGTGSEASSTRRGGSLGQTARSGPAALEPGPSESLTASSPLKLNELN
Source text: (§1) For use in both the "LTB4 receptor Binding Assay" and the "human Neutrophil Degranulation Assay", neutrophils were purified from venous blood of normal human donors using standard techniques of dextran sedimentation, centrifugation on Histopaque® (density solution) and hypotonic lysis of erythrocytes (Boyum, A., Isolation of Leukocytes From Human Blood: Further Observations. Scand. J. Lab. Clin. Inves. 21 (Suppl. 97): 31, 1968). The purity of isolated neutrophils was ≥95%.
Neutrophils (4-6×10^6) in 1 ml of Hanks balanced salt solution containing 10 mM Hepes Buffer (HBSS), pH 7.4 and 30 μM nordihydroguaiaretic acid were incubated with 0.6 nM (^3 H) LTB4 in the presence or absence of test compounds. The incubation was carried out at 0° C. for 45 minutes and terminated by adding 5 ml of ice cold HBSS followed by rapid filtration of incubation mixture under vacuum through GF/C glass fiber filters. The filters were further washed with 10 ml HBSS and their radioactivity was determined. Specific binding was defined as the difference between total binding and nonspecific binding which was not displaced by 10-^7 M unlabeled LTB4.
The inhibition of specific binding was determined for representatives compounds of this invention, and the corresponding IC50 values calculated (Table 1). An IC50 is the concentration of the compound of interest which will inhibit the binding of LTB4 by 50% of the LTB4 receptors. For example, for the compound of Example 7, the IC50 was determined to be approximately

[1] = system: LTB4 induced degranulation of human neutrophils; assay: Human Neutrophil Degranulation Assay (LTB4 induced myeloperoxidase release); format: cell-based; settings: cytochalasin B, LTB4 5×10^-8 M, read-out: Inhibition of LTB4 Induced Neutrophil Degranulation IC50
Source text: as §1
LTB4 induced neutrophil degranulation was determined by measuring the release of myeloperoxidase activity into the incubation medium. Neutrophils (3×10^6) in 1 ml HBSS solution were preincubated with cytochalasin B(5 μg) at 37° C. for 5 minutes, followed by preincubation with test compounds for 7 minutes. Neutrophilsere then incubated for 2 to 20 minutes with either LTB4 (5 ×10^-8 M) or the chemotactic peptide f-met-leu-phe (5×10^-6 M) to induce degranulation. Following incubation, samples were centrifuged and myleoperoxidase was extracted from the cell pellets by sonication in phosphate buffer containing 0.4% Triton X-100. Triton X-100 was also added to the supernatents to a concentration of 0.4%. The supernatants and the pellet extracts were then assayed spectrophotometrically for myeloperoxide activity by determining the rate of decomposition of H2 O2 with o-dianisidine as hydrogen donor as described by Renlund D. G., MacFarlane J. L., Christensen, R. D., Lynch R. E., and Rothstein, G., A Quantitative And Sensitive Method For Measurement Of Mveloperoxidase, Clinical Research 28:75A, 1980). Myeloperoxidase activity released into the supernatant was expressed as the percent of the average total activity (pellet plus supernatant).
The inhibition of LTB4 induced neutrophil degranulation was determined for representative compounds of this invention and their corresponding IC50 values were calculated (Table 1). The concentration of a compound which inhibited LTB4 induced neutrophil degranulation by 50% was determined to be its IC50 value.

Row | Substance | Inhibition of Receptor Binding of LTB4, % inhibition (LTB4 receptor; at 10 μM) [%] | IC50 [1] [nM] | IC50 (LTB4 receptor) [nM]
1 | 7-[2-[5-(1-hydroxynonyl)thienyl]-5-hydroxy-6Z-heptenoic acid, lithium salt [Example 23] | 20 | 8700 | 
2 | Methyl 7-[4-(hydroxynonyl)phenyl]-5-hydroxy-6heptynoate [Example 11] |  | 650 | 1000
3 | 7-[2-[5-(1-hydroxynonyl)thienyl]-5-hydroxy-6Z-heptynoic acid, lithium salt [Example 22] |  | 1800 | 5000
